Results reported in PubChem BioAssay (NCI).
“And” between values parts separate entries of the source, which are not always exact repeats. Equal entries are not always repeated.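 Five concentrations, 48 hours, 96-well plates. GI50: concentration for 50% inhibition of growth. TGI marks complete inhibition of growth.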

How the values were obtained:
Experiment in all cases: NCI-60 cell line screen, 48 h
A498 renal = test system: A498 renal
HCT-15 colon = test system: HCT-15 colon
IGROV1 ovarian = test system: IGROV1 ovarian
OVCAR-3 ovarian = test system: OVCAR-3 ovarian
OVCAR-8 ovarian = test system: OVCAR-8 ovarian
SF-268 CNS = test system: SF-268 CNS
SK-MEL-28 melanoma = test system: SK-MEL-28 melanoma
SK-OV-3 ovarian = test system: SK-OV-3 ovarian
SN12C renal = test system: SN12C renal
SR leukemia = test system: SR leukemia

COc1cc2nc(-c3ccc(Cl)cc3)cc(OCCCN3CCC(O)CC3)c2cc1OC
GI50 (A498 renal): 1.53 µM
TGI (A498 renal): 3.83 µM
GI50 (HCT-15 colon): 0.763 µM
TGI (HCT-15 colon): 12.5 µM
GI50 (IGROV1 ovarian): 0.923 µM
TGI (IGROV1 ovarian): 14.9 µM
GI50 (OVCAR-3 ovarian): 3.24 µM
TGI (OVCAR-3 ovarian): 28.3 µM
GI50 (OVCAR-8 ovarian): 2 µM
TGI (OVCAR-8 ovarian): 20.7 µM
GI50 (SF-268 CNS): 3.36 µM
TGI (SF-268 CNS): 19.6 µM
GI50 (SK-MEL-28 melanoma): 1.49 µM
TGI (SK-MEL-28 melanoma): 3.28 µM
GI50 (SK-OV-3 ovarian): 3.17 µM
TGI (SK-OV-3 ovarian): 21.8 µM
GI50 (SN12C renal): 1.26 µM
TGI (SN12C renal): 22.1 µM
GI50 (SR leukemia): 0.373 µM
TGI (SR leukemia): 3.42 µM

CCOC(=O)/C(=C/c1c(-c2ccccc2)[nH]c2ccccc12)C(=O)c1ccc(Cl)cc1
GI50 (A498 renal): 8.81 µM
TGI (A498 renal): > 100 µM
GI50 (HCT-15 colon): 4.06 µM
TGI (HCT-15 colon): > 100 µM
GI50 (IGROV1 ovarian): 19.9 µM
TGI (IGROV1 ovarian): > 100 µM
GI50 (OVCAR-3 ovarian): 3.35 µM
TGI (OVCAR-3 ovarian): > 100 µM
GI50 (OVCAR-8 ovarian): 5.75 µM
TGI (OVCAR-8 ovarian): > 100 µM
GI50 (SF-268 CNS): 6.06 µM
TGI (SF-268 CNS): > 100 µM
GI50 (SK-MEL-28 melanoma): 5.26 µM
TGI (SK-MEL-28 melanoma): > 100 µM
GI50 (SK-OV-3 ovarian): 4.38 µM
TGI (SK-OV-3 ovarian): > 100 µM
GI50 (SN12C renal): 3.35 µM
TGI (SN12C renal): > 100 µM
GI50 (SR leukemia): 3.14 µM
TGI (SR leukemia): 6.42 µM

CC/C(=C(/CC)c1ccc(OP(=O)([O-])[O-])cc1)c1ccc(OP(=O)([O-])[O-])cc1.N.N.N.N.[Pt+4].[Pt+4]
GI50 (A498 renal): 27.5 µM
TGI (A498 renal): 61.1 µM
GI50 (HCT-15 colon): 11.8 µM
TGI (HCT-15 colon): 45.4 µM
GI50 (IGROV1 ovarian): 5.36 µM
TGI (IGROV1 ovarian): 53.6 µM
GI50 (OVCAR-3 ovarian): 2.49 µM
TGI (OVCAR-3 ovarian): 8.89 µM
GI50 (OVCAR-8 ovarian): 4.71 µM
TGI (OVCAR-8 ovarian): > 100 µM
GI50 (SF-268 CNS): 1.73 µM
TGI (SF-268 CNS): 16.6 µM
GI50 (SK-MEL-28 melanoma): 2.07 µM
TGI (SK-MEL-28 melanoma): 6.28 µM
GI50 (SK-OV-3 ovarian): 3.85 µM
TGI (SK-OV-3 ovarian): 17 µM
GI50 (SN12C renal): 3.93 µM
TGI (SN12C renal): 45.7 µM
GI50 (SR leukemia): 1.28 µM
TGI (SR leukemia): > 100 µM

Cn1cc(-c2ccc3c(c2)ncn3-c2ccc(CC(=O)Nc3cc(C(C)(C)C)on3)cc2)cn1
GI50 (A498 renal): 0.122 µM
TGI (A498 renal): 0.461 µM
GI50 (HCT-15 colon): 1.19 µM
TGI (HCT-15 colon): > 40.9 µM
GI50 (IGROV1 ovarian): 0.235 µM
TGI (IGROV1 ovarian): 1.31 µM
GI50 (OVCAR-3 ovarian): 2.06 µM
TGI (OVCAR-3 ovarian): > 39.8 µM
GI50 (OVCAR-8 ovarian): 3.16 µM
TGI (OVCAR-8 ovarian): > 43.3 µM
GI50 (SF-268 CNS): 0.674 µM
TGI (SF-268 CNS): > 46.5 µM
GI50 (SK-MEL-28 melanoma): 2.65 µM
TGI (SK-MEL-28 melanoma): > 100 µM
GI50 (SK-OV-3 ovarian): 1.01 µM
TGI (SK-OV-3 ovarian): 4.33 µM
GI50 (SN12C renal): 0.379 µM
TGI (SN12C renal): 8.09 µM
GI50 (SR leukemia): 1.69 µM
TGI (SR leukemia): 8.49 µM

O=[N+]([O-])c1ccc([I+]c2ccccc2)cc1
TGI (A498 renal): 6.49 µM and 5.48 µM
GI50 (HCT-15 colon): 8.9 µM
TGI (HCT-15 colon): 18.3 µM and 23.4 µM
TGI (IGROV1 ovarian): 35.3 µM
GI50 (OVCAR-3 ovarian): 1.8 µM
TGI (OVCAR-3 ovarian): 12.2 µM and 3.39 µM
GI50 (OVCAR-8 ovarian): 2.78 µM
TGI (OVCAR-8 ovarian): 12.2 µM and 10.3 µM
GI50 (SF-268 CNS): 1.65 µM
TGI (SF-268 CNS): 13.1 µM and 3.11 µM
GI50 (SK-MEL-28 melanoma): 1.92 µM
TGI (SK-MEL-28 melanoma): 10.1 µM and 4.57 µM
GI50 (SK-OV-3 ovarian): 1.73 µM
TGI (SK-OV-3 ovarian): 3.6 µM and 3.24 µM
GI50 (SN12C renal): 1.4 µM
TGI (SN12C renal): 3.26 µM and 2.89 µM
TGI (SR leukemia): > 47.8 µM

CCN1C(=O)N(CC)C2C1NN=c1s/c(=C\c3ccc([N+](=O)[O-])cc3)c(=O)n12 (configuration not stated)
GI50 (A498 renal): 0.172 µM
TGI (A498 renal): 0.704 µM
GI50 (HCT-15 colon): 0.394 µM
TGI (HCT-15 colon): > 100 µM
GI50 (IGROV1 ovarian): 0.977 µM
TGI (IGROV1 ovarian): > 32.9 µM
GI50 (OVCAR-3 ovarian): 0.283 µM
TGI (OVCAR-3 ovarian): 0.842 µM
GI50 (OVCAR-8 ovarian): 0.885 µM
TGI (OVCAR-8 ovarian): > 91.1 µM
GI50 (SF-268 CNS): 0.895 µM
TGI (SF-268 CNS): > 67.7 µM
GI50 (SK-MEL-28 melanoma): 1.93 µM
TGI (SK-MEL-28 melanoma): > 100 µM
GI50 (SK-OV-3 ovarian): 0.698 µM
TGI (SK-OV-3 ovarian): 49.5 µM
GI50 (SN12C renal): 0.677 µM
TGI (SN12C renal): > 64.4 µM
GI50 (SR leukemia): 0.385 µM
TGI (SR leukemia): > 66.4 µM

Cc1ccc(S(=O)(=O)OC(C=O)C(O)C(O)COC(c2ccccc2)(c2ccccc2)c2ccccc2)cc1 (configuration not stated)
TGI (A498 renal): 32.6 µM
TGI (HCT-15 colon): 27.1 µM
TGI (IGROV1 ovarian): 29.5 µM
TGI (OVCAR-3 ovarian): 28.1 µM
TGI (OVCAR-8 ovarian): 26.5 µM
TGI (SF-268 CNS): 35.2 µM
TGI (SK-MEL-28 melanoma): 35.9 µM
TGI (SK-OV-3 ovarian): 28.4 µM
TGI (SN12C renal): 28.9 µM
TGI (SR leukemia): 24.7 µM

CCN1CCC(O)(c2ccccc2)C(C(=O)c2ccccc2)C1 (configuration not stated)
TGI (A498 renal): > 100 µM
TGI (HCT-15 colon): > 61.2 µM
TGI (IGROV1 ovarian): > 100 µM
TGI (OVCAR-3 ovarian): 31.2 µM
TGI (OVCAR-8 ovarian): 63.7 µM
TGI (SF-268 CNS): > 31.6 µM
TGI (SK-MEL-28 melanoma): 33.4 µM
TGI (SK-OV-3 ovarian): > 100 µM
TGI (SN12C renal): > 31.6 µM
TGI (SR leukemia): 60.3 µM
